Measurements taken from article PMC4418667 (PLoS ONE, 2015).

Target: T1, IKKβ (Homo sapiens, UniProt O14920)
T1 construct: gene IKBKB
T1 sequence (O14920 1-756): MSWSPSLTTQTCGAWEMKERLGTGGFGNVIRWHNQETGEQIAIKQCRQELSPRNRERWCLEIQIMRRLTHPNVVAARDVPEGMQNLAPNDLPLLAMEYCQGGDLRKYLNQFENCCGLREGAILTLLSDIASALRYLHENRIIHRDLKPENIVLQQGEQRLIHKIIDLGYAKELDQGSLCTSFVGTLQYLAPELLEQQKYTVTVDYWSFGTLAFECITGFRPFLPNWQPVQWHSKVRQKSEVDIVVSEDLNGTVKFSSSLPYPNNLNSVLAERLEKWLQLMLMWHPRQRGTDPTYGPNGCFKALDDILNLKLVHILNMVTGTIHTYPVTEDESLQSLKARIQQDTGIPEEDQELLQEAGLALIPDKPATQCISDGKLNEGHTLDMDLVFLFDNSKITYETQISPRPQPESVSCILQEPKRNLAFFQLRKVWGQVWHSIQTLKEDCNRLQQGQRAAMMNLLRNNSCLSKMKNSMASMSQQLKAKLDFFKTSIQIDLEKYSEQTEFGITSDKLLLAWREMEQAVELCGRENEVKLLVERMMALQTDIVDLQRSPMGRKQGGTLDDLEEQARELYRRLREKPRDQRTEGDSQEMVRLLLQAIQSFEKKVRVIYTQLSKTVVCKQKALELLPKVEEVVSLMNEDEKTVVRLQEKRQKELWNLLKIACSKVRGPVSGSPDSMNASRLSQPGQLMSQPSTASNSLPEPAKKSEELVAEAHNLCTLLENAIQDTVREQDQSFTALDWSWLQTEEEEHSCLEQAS
Experiment: biochemical

| Compound | IC50 [µM] |
| --- | --- |
| C[C@H]1[C@H](C)CC[C@]2(C(=O)O)CC[C@]3(C)C(=CC[C@@H]4[C@@]5(C)C[C@@H](O)[C@H](O)[C@@](C)(CO)[C@@H]5CC[C@]43C)[C@H]12 [AA, Asiatic Acid] | 95 |
| C[C@H]1[C@H](C)CC[C@]2(C(=O)O)CC[C@]3(C)C(=CC[C@@H]4[C@@]5(C)CC[C@H](O)C(C)(C)[C@@H]5CC[C@]43C)[C@H]12 [UA, Ursolic Acid] | 69 |
| C[C@H]1[C@H](C)CC[C@]2(C(=O)O)CC[C@]3(C)C(=CC[C@@H]4[C@@]5(C)C[C@@H](O)[C@H](O)C(C)(C)[C@@H]5CC[C@]43C)[C@H]12 [CA, Corosolic Acid] | 89.3 |
